The values below are quoted from earlier work in patent US11904070B2, “Tissue scaffold and scaffold composition” (Locate Therapeutics Limited, priority 2017, dated 2024).

The conditions of the series: at 25° C.
With `CN1CCCC1=O` [NMP, N-Methyl-2-pyrrolidone], the Solubility in water entry is reported as “Miscible”.
In the case of `CCO` [EtOH, Ethanol], the Solubility in water entry is given as “Miscible”.
As for `CC(=O)OCC(COC(C)=O)OC(C)=O` [Triacetin, triacetin], the Solubility in water is 5.8 % w/v.
In the case of `OCC(O)CO` [Glycerol], the Solubility in water entry was “Miscible”.
As for polyethylene glycol 400 [PEG400], the Solubility in water result was “Miscible”.
With `C[S+](C)[O-]` [DMSO], the Solubility in water entry was “Miscible”.
